Reference: patent publication US20070135383A1, “Phospholipase inhibitors, including multi-valent phospholipase inhibitors, and use thereof, including as lumen-localized phospholipase inhibitors” (priority 2005, published 2007)
Where two headings read alike, the source gives them in different places.

Assays:
[1] = test system: PL A2; settings: range given in words, art-known PL A2 inhibitors; cited from earlier work
[2] = Mouse pharmacokinetic study, IV vs oral (Example 18); type: in vivo, male CD-1 mice; settings: male, CD-1, mouse, PO 30 mg/kg vs IV 3 mg/kg, serum by LC/MS/MS
Procedure: The plasma exposure of male CD-1 mice to indole and indole-related test articles (TAs) following intravenous (IV, 3 mg/kg) and oral (PO, 30 mg/kg) routes of administration was measured. This model was used to investigate the bioavailability of indole and indole-related TAs in mouse. Mice were selected for the study since they are an accepted species frequently used in pre-clinical evaluation of drugs intended for human use.
Male CD-1 mice (7-8 weeks old) were obtained from Charles River Laboratories (Wilmington, Mass.). Two groups (N=18 and 27) of male CD-1 mice were used for the study. Upon arrival, the animals were placed on Rodent Diet 5001 (Purina Mills, Inc., St. Louis, Mo.).
On study day (−1), indole and indole-related TAs were formulated for oral or IV dosing by mixing the formulation components with test article in the proportions described in Table 10.1. The components were mixed by vortexing and sonicating in a warming bath for 60 minutes. Animals were fasted overnight prior to start of the study. On study day (1), formulations were sonicated for an hour to make sure that no visible particles were present prior to dosing, or if present were evenly distributed in suspension. Formulated test article were stirred continuously during dosing.
All animals were weighed on study day (1) and the body weights were recorded and used for dose calculation. The animals were dosed by either PO or IV route as outlined in Table 10.2. Blood samples (0.5 mL) were collected at specified time intervals into labeled, yellow-capped Microtainer tubes. The tubes were centrifuged (8,000×g, 10 min). Serum was then pipetted off into labeled Eppendorf® tubes and frozen at −80° C. Clinical observations were recorded as needed.
Analysis of serum samples was performed by LC/MS/MS (Waters Quattro Premier, Milford, Mass.). Areas under curves (AUC) were calculated using Graphpad Prism Version 4. Bioavailability was calculated using the following equation: (Bioavailability)=(AUC0-t,oral/AUC0-t,iv)×(Doseiv/Doseoral)×100
where AUC0-t=total area under curve at the last measurable time point

[3] = biological target: T1, porcine group 1B PLA2 (pps PLA2) (Sus scrofa, UniProt P00592); assay: Fluorimetric PPyrPM assay for group 1B PLA2 inhibition (Example 12); type: biochemical
T1 construct: purchased
T1 sequence (P00592 23-146): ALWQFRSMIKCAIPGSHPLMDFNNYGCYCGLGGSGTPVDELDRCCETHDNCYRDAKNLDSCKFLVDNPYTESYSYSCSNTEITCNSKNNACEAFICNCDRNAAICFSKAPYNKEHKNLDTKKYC
Summary of the method: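 Porcine group 1B PLA2 hydrolysis of 4.2 uM PPyrPM vesicle solution (pre-mixing concentration) in 50 mM Tris-HCl pH 8.0, 50 mM KCl, 1 mM CaCl2 with BSA; inhibitors in 8-point threefold series from 15 uM. After 3 min at 37 °C, fluorescence read at ex 342/em 395 nm; duplicate IC50 by four-parameter fit.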

[4] = biological target: T2, human group 1B PLA2 (hps PLA2) (Homo sapiens, UniProt P04054); assay: as above; type: biochemical
T2 construct: made in house; host or cells: E. coli
T2 sequence (P04054 23-148): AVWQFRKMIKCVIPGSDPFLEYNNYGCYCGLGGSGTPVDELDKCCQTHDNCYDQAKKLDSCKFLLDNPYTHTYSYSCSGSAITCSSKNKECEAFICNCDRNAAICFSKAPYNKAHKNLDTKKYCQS

[5] = biological target: T3, mouse group 1B PLA2 (mps PLA2) (Mus musculus, UniProt Q9Z0Y2); assay: as above; type: biochemical
T3 construct: made in house; host or cells: E. coli
T3 sequence (Q9Z0Y2 23-146): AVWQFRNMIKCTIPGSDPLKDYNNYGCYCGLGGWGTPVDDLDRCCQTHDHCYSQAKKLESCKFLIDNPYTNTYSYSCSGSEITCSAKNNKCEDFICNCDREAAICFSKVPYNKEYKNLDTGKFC

[6] = test system: C57BL/6J mouse model of obesity; assay: Mouse diet-induced obesity model (Example 19); type: in vivo; settings: low fat control diet D12328, 25 or 90 mg/kg/d
Text: The high-fat diet-fed C57BL/6J mouse model of human diabetes, originally introduced by Surwit and colleagues (Surwit, R S, et al. (1988) “Diet-induced type II diabetes in C57BL/6J mice”, Diabetes 37: 1163-1167) is a widely accepted, clinically relevant, polygenic model that induces obesity, dyslipidemia, glucose- and insulin-resistance as early as 3 weeks after commencing the high fat diet (Winzell, M S and Ahren, B (2004) “The high-fat diet-fed mouse: a model for studying mechanisms and treatment of impaired glucose tolerance and type 2 diabetes”, Diabetes 53 Suppl 3: S215-219). This model was used to investigate the effects of indole and indole-related Test Articles. Avandia (rosiglitazone) was used as a control Test Article. […]
In these studies and the accompanying figures, Diet D12328 from Research Diets is referred to as the “Low Fat” or Control diet/chow, while Diet D12331 from Research Diets is referred to as the “High Fat” diet. […] The Test Article content was calculated such that ad libitum consumption by the animals would deliver doses (in mg of Test Article per kg animal weight per day) approximating those listed in Table 11.
Animals were maintained on the diets for up to eleven weeks. Body weights were recorded weekly. […] The serum was analyzed for glucose, total cholesterol, triglycerides (TG) and lysophospholipid (LPC) content. […]

[7] = test system: LDL receptor knockout mice; assay: LDL receptor knockout mouse model (Example 20); type: in vivo; settings: low fat control diet D12328, 25 or 90 mg/kg/d
Text: Mice lack an enzyme found in humans, cholesterol ester transfer protein (CETP), which is responsible for the transfer of cholesterol from high density lipoproteins (HDL) to the ApoB-containing lipoproteins such as very low density lipoproteins (VLDL) and low density lipoproteins (LDL). Consequently, LDL cholesterol levels in wild-type mice are very low compared to those seen in humans. The low density lipoprotein receptor (LDLR) is involved with clearing LDL and lipoprotein remnants containing apoE. If the LDLR is inactivated, LDL cholesterol levels rise to levels seen in humans. On a normal rodent diet, the LDL cholesterol levels in LDLR deficient mice are elevated compared to wild-type mice. […]
In these studies and the accompanying figures, Diet D12328 from Research Diets is referred to as the “Low Fat” or Control diet, while Diet D12079B from Research Diets is referred to as the “Western” diet. […] The Test Article content was calculated such that ad libitum consumption by the animals would deliver doses (in mg of Test Article per Kg animal weight per day) approximating those listed in Table 12.
Animals were maintained on the diets for eight weeks. Body weights were recorded weekly. […] The serum was analyzed for total cholesterol, LDL cholesterol, HDL cholesterol, triglycerides (TG), free fatty acid (FFA) and lysophospholipid (LPC) content. […]

[8] = test system: mice; assay: Toxicology, daily oral gavage for 5 consecutive days (Example 23); type: in vivo
Text: The purpose of this study was to evaluate the toxicity of indole and indole-related Test Articles when administered daily via oral gavage to mice for 5 consecutive days.
Assessment of toxicity was based on mortality; clinical signs, body weight, food consumption, clinical pathology, and macroscopic pathology data.

SMILES: CCc1c(CC(N)=O)c2cc(OCCCP(=O)(O)O)ccc2n1Cc1ccccc1 [LY-311727]
- IC50 [1]: sub μM range

SMILES: CCN(CC)CCN(Cc1ccc(-c2ccc(C(F)(F)F)cc2)cc1)C(=O)Cn1cc(Cc2ccn(C)n2)c(=O)nc1SCc1ccc(F)cc1 [GB-480848]
- IC50 [1]: nM or subnM range

SMILES: Cc1c(C(=O)C(N)=O)c2c(OCC(=O)O)cccc2n1CCCCCCCCCCCCOc1ccccc1-c1ccccc1OCCCCCCCCCCCCn1c(C)c(C(=O)C(N)=O)c2c(OCC(=O)O)cccc21 [ILY-V-37, [3-Aminooxalyl-1-(12-{2′-[12-(3-aminooxalyl-4-carboxymethoxy-2-methyl-indol-1-yl)-dodecyloxy]-biphenyl-2-yloxy}-dodecyl)-2-methyl-1H-indol-4-yloxy]-acetic acid]
- bioavailability ([2]; in vivo): 0.15%
- IC50 ([3]; porcine pancreas secreted PLA2, read-out: ILYPSA IC50 pps PLA2): 0.2 µM
- IC50 ([4]; human pancreas secreted PLA2, read-out: ILYPSA IC50 hps PLA2): 0.27 µM
- IC50 ([5]; mouse pancreas secreted PLA2, read-out: ILYPSA IC50 mps PLA2): 0.23 µM

SMILES: C=CCN(CC(=O)OCC)C(=O)COc1ccc(C(=O)OCc2ccccc2)cc1
- IC50 [1]: μM range

SMILES: Cc1c(C(=O)C(N)=O)c2c(OCC(=O)O)nccc2n1Cc1ccccc1 [ILY-II-1, (3-Aminooxalyl-1-benzyl-2-methyl-1H-pyrrolo[3,2-c]pyridin-4-yloxy)-acetic acid]
- bioavailability [2]: 11%
- IC50 [3]: 0.07 µM
- IC50 [4]: 1.15 µM
- IC50 [5]: 0.23 µM

SMILES: Cc1c(C(=O)C(N)=O)c2c(OCC(=O)O)cccc2n1CCCCCCCCCCCCOc1ccc(C(C)(C)c2ccc(OCCCCCCCCCCCCn3c(C)c(C(=O)C(N)=O)c4c(OCC(=O)O)cccc43)cc2)cc1 [ILY4011]
- effect of test article in animals fed low fat control diet [6]: No or little effect
- effect of test article in animals fed low fat control diet [7]: No or little effect
- clinical pathology data, treated groups vs vehicle control group [8]: no differences
